Measurements from ChEMBL document CHEMBL1135002, “Optimization of a pyrazolo[1,5-a]pyrimidine class of KDR kinase inhibitors: improvements in physical properties enhance cellular activity and pharmacokinetics” (Bioorg Med Chem Lett, 2002).

Columns and labels:
[1] = Partition coefficient (logP); format: physicochemical; settings: octanol/water
[2] = The pharmacokinetic parameter plasma clearance in vivo in rats; format: ADME, organism-based; settings: rat, read-out: CI
[3] = The pharmacokinetic parameter half-life period in vivo in rats; format: ADME, organism-based; settings: rat
[4] = Bioavailability in rat; format: ADME, organism-based; settings: in vivo
[5] = target: Vascular endothelial growth factor receptor 2 (Homo sapiens, UniProt P35968)
Description: Inhibition of Vascular endothelial growth factor receptor 2

[6] = target: Vascular endothelial growth factor receptor (Homo sapiens, UniProt P17948+P35916+P35968); settings: endothelial cell
Description: Inhibition of VEGF-stimulated mitogenesis in endothelial cells

[7] = The pharmacokinetic parameter volume of distribution in vivo in rats; format: ADME, organism-based; settings: rat, read-out: Vdss

Chain of Vascular endothelial growth factor receptor 2 (P35968 whole entry): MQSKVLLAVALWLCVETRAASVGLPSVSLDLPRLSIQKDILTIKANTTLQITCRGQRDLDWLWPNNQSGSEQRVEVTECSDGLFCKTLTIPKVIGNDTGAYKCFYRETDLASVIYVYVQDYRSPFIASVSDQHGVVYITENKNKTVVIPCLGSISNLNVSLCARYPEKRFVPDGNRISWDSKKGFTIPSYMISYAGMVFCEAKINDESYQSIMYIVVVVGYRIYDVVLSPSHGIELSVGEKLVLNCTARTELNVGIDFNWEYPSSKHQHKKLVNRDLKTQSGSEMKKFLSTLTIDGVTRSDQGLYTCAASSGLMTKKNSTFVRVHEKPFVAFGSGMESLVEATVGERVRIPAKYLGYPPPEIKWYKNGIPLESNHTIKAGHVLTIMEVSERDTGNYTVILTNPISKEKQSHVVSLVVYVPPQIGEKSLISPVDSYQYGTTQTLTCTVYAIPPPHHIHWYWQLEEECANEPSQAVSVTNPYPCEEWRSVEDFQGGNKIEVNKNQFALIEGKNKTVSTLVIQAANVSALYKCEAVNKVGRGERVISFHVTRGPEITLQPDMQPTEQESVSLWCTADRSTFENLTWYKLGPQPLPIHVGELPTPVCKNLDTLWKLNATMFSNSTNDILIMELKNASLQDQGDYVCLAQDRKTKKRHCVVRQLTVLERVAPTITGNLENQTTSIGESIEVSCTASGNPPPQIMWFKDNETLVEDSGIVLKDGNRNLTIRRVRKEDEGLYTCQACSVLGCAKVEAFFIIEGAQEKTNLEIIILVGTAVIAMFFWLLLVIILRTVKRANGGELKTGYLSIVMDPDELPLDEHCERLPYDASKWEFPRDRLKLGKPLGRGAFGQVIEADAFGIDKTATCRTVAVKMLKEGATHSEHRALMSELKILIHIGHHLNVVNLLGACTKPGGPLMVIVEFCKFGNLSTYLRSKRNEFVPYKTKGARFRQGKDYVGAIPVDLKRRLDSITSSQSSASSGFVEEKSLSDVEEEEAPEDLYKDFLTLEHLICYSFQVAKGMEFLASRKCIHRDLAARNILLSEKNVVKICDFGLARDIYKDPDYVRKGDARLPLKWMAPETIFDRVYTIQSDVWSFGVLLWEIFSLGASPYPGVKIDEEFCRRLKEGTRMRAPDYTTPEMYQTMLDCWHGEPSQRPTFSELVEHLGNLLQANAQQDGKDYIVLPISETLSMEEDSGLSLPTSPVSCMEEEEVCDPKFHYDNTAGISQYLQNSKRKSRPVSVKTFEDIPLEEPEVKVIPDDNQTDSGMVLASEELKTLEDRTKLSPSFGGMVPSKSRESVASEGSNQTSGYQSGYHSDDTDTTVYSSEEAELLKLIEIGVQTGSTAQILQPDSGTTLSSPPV

SMILES	logP [1]	half-life [3] [h]	bioavailability [4] [%]	IC50 [6] [µM]	Vd [7] [L/kg]	further results
O=c1cc(-c2cnc3c(-c4ccccc4)cnn3c2)ccn1CCCN1CCCCC1	2.4					
CN1CCN(CCCn2ccc(-c3cnc4c(-c5ccccc5)cnn4c3)cc2=O)CC1	2					
c1cncc(-c2cnn3cc(-c4ccc(OCCN5CCCCC5)cc4)cnc23)c1		3.3	42	0.029	6	clearance [2]: 23 mL/min/kg; IC50 [5]: 0.02 µM
CN1CCN(CCCn2ccc(-c3cnc4c(-c5ccsc5)cnn4c3)cc2=O)CC1	1.6	3.4	56		7.9	
c1ccc(-c2cnn3cc(-c4ccc(OCCN5CCOCC5)cc4)cnc23)cc1				0.032		IC50 [5]: 0.009 µM
c1cc(-c2cnn3cc(-c4ccc(OCCN5CCCCC5)cc4)cnc23)cs1 [L-21649]	> 4	5.1	18		16	

Further lines, with some results ahead:

logP [1]	half-life [3] [h]	bioavailability [4] [%]	IC50 [6] [µM]	Vd [7] [L/kg]	SMILES	further results
			0.031		c1cc(-c2cnn3cc(-c4ccc(OCCN5CCOCC5)cc4)cnc23)ccn1	
			0.15		COc1ccc(-c2cnc3c(-c4ccncc4)cnn3c2)cc1	
> 4					COc1ccc(-c2cnc3c(-c4ccsc4)cnn3c2)cc1	
